Values of other authors in patent US20250186473A1, “Compositions and Methods for Treating Kidney Disease” (Neukidney Incorporated, priority 2023, published 2025).

Tested on: CKD in rat models
Conditions: oral supplementation, BUN, serum creatinine, fibrosis

NC(=O)c1cccnc1 [Nicotinamide]
effect on progression of CKD: attenuated progression of CKD
